How the values were obtained:
casein kinase II = casein kinase II (Homo sapiens, UniProt P68400); assay: Casein kinase II assay with casein; format: biochemical; conditions: 180 μM NECA or 180 μM radicicol in 3.6% DMSO, 5 μg/ml heparin, 5 mM GTP; 4 μM casein
Procedure: (§1) Phosphorylation Assays. […] For the casein kinase assay, 1 unit of casein kinase 11 was incubated as described above, with the addition of 4 μM casein. […] The 25 μl reaction mixtures were incubated at 37° C. for 1 hour and quenched by addition of 10% trichloroacetic acid. Samples were analyzed by 10% SDS-PAGE gels and the phosphorylated species were quantitated using a Fuji MACBAS1000™ phosphorimaging system (Fuji Medical Systems of Stamford, Conn.).

GRP94 [1] = target: T1, GRP94 (Sus scrofa, UniProt Q29092); assay: GRP94 autophosphorylation assay; format: biochemical, porcine; parameters: GRP94 was purified from porcine pancreas rough microsomes; from tissue; host or cells: porcine pancreas rough microsomes; conditions: 180 μM NECA or 180 μM radicicol in 3.6% DMSO, 5 μg/ml heparin, 5 mM GTP; 1 hour 37° C.
T1 sequence (Q29092 22-804): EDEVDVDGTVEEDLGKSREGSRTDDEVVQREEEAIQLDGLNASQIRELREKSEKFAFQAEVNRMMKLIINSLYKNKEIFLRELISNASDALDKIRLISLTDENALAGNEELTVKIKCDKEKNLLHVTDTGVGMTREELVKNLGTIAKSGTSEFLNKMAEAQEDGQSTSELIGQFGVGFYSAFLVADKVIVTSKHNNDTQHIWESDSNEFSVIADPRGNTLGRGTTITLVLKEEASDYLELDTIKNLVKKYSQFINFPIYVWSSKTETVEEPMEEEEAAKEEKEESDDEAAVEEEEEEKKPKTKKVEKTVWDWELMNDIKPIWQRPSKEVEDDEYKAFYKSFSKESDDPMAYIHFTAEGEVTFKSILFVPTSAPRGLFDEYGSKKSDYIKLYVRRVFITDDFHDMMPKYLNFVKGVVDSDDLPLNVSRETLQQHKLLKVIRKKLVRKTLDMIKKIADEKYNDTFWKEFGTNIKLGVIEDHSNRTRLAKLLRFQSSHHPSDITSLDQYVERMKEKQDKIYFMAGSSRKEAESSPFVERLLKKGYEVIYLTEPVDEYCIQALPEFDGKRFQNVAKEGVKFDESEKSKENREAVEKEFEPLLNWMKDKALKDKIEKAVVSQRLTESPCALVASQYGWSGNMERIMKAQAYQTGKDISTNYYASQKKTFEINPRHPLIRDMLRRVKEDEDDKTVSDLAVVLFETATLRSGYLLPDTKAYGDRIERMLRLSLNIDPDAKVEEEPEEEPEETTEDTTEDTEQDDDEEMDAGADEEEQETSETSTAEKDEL
Procedure: as §1

GRP94 [2] = target: T1, GRP94; assay: [3H]-NECA competitive displacement assay; format: binding, porcine; parameters: GRP94 was purified from porcine pancreas rough microsomes; from tissue; host or cells: porcine pancreas rough microsomes; conditions: for nucleoside base specificity: binding by [3H]-NECA competitive displacement: competitors all at 50 μM; for nucleoside base specificity: binding by [3H]-NECA competitive displacement / competition with [3H]-NECA for binding to GRP94 (adenosine ligands): 20 nM [3H]-NECA; for competition with [3H]-NECA for binding to GRP94 (adenosine ligands): nominal (80 μM) Mg2+; for effect of excess Mg2+ on binding to GRP94: 10 mM Mg(OAc)2 vs nominal endogenous magnesium
GRP94 [3] = target: T1, GRP94; assay: Tryptophan fluorescence (ligand-induced conformational change); conditions: 50 μM NECA, 50 μM geldanamycin, 2.5 mM ATP or 2.5 mM ADP, 1 hour at 37° C.
Procedure: Tryptophan Fluorescence. Tryptophan fluorescence measurements were conducted in a FLUOROMAX™ spectrofluorometer (Spex Industries, Inc. of Edison, N.J.) with the slit widths set to 1 nm for both excitation and emission. […] All spectra were corrected by subtraction of buffer or buffer plus ligand samples. […] Samples were then cooled to room temperature, transferred to a quartz cuvette, and the spectra collected.

[4] = target: N-terminal nucleotide binding pocket of Hsp90 (Saccharomyces cerevisiae, UniProt P02829); conditions: cited from earlier work
Sequence of N-terminal nucleotide binding pocket of Hsp90 (P02829 whole entry): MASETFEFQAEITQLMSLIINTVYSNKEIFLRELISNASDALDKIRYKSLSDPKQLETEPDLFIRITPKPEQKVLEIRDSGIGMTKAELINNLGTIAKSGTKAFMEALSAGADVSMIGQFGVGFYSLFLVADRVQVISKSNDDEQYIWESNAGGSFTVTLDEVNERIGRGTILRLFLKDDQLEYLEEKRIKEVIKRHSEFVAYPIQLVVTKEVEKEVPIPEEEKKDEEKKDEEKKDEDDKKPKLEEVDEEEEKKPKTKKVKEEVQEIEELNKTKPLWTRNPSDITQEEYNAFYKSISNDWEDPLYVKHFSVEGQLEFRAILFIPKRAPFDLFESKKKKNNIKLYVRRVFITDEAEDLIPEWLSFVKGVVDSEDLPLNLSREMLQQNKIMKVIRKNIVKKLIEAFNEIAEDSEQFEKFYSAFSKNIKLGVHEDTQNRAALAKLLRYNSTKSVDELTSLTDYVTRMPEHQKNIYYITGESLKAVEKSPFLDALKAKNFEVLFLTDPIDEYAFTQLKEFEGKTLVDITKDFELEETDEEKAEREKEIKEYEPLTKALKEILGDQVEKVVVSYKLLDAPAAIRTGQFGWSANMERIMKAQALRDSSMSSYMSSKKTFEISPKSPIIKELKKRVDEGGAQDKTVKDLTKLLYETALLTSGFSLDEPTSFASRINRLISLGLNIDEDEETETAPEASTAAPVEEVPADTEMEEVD

GRP94 [5] = target: T1, GRP94; assay: Fluorophore binding reactions with native or heat shocked GRP94 (fluorescence emission); conditions: for fluorophore binding to heat shocked GRP94: 0.5 μM GRP94 heat shocked 15 minutes at 50° C., 5 μM probe

Sequence of casein kinase II (P68400 whole entry): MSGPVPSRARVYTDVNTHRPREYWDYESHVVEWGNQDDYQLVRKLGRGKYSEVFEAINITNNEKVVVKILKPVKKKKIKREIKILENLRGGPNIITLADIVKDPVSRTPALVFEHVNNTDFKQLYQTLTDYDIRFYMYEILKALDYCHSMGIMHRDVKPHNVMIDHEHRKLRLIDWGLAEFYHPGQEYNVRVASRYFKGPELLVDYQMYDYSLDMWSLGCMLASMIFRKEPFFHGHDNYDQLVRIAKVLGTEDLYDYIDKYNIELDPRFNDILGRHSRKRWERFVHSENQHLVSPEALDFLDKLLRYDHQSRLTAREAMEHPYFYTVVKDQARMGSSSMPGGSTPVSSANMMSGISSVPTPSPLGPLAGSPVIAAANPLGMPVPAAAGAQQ
Sequence of casein kinase II (P67870 whole entry partner): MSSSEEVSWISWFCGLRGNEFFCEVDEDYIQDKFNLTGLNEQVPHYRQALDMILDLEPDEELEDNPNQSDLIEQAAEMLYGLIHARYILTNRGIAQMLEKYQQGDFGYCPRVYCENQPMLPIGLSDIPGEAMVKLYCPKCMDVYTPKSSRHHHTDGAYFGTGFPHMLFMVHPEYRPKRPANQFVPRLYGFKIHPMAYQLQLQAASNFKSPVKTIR

Nc1nc2c(ncn2[C@@H]2O[C@H](COP(=O)(O)OP(=O)(O)OP(=O)(O)O)[C@@H](O)[C@H]2O)c(=O)[nH]1 [GTP]
effect on casein kinase II activity (casein kinase II): markedly attenuated
effect on GRP94 autophosphorylation activity (GRP94 [1]): markedly attenuated
nucleoside base specificity: binding by [3H]-NECA competitive displacement (GRP94 [2]): little to no binding

heparin
effect on casein kinase II activity (casein kinase II): markedly attenuated
effect on GRP94 autophosphorylation activity (GRP94 [1]): markedly attenuated

Nc1ncnc2c1ncn2[C@@H]1O[C@H](COP(=O)(O)OP(=O)(O)O)[C@@H](O)[C@H]1O [ADP]
change of GRP94 tryptophan fluorescence (GRP94 [3]): the tryptophan fluorescence was decreased
competition with [3H]-NECA for binding to GRP94 (adenosine ligands) (GRP94 [2]): effectively competed
effect of excess Mg2+ on binding to GRP94 (GRP94 [2]): markedly stimulated
extent of competition of NECA binding to GRP94 (GRP94 [2]; FIGS. 10A–10C): wholly competed
relative affinities for GRP94 in presence of Mg2+ (GRP94 [2]; excess Mg2+): nearly identical relative affinities
affinity of N-terminal domain of Hsp90 for ADP relative to ATP ([4]; Prodromou et al. (1997)): four-fold higher affinity than that observed for ATP

Nc1ncnc2c1ncn2[C@@H]1O[C@H](CO)[C@@H](O)[C@H]1O [adenosine]
competition with [3H]-NECA for binding to GRP94 (adenosine ligands) (GRP94 [2]): relative displacement activity approximating that observed for ADP
effect of excess Mg2+ on binding to GRP94 (GRP94 [2]): without effect

Nc1ncnc2c1ncn2[C@@H]1O[C@H](COP(=O)(O)O)[C@@H](O)[C@H]1O [AMP]
competition with [3H]-NECA for binding to GRP94 (adenosine ligands) (GRP94 [2]): effectively competed
effect of excess Mg2+ on binding to GRP94 (GRP94 [2]): markedly stimulated

Nc1ncnc2c1ncn2[C@H]1C[C@H](O)[C@@H](COP(=O)(O)OP(=O)(O)OP(=O)(O)O)O1 [deoxyATP]
nucleoside base specificity: binding by [3H]-NECA competitive displacement (GRP94 [2]): could bind

CCC(=O)c1ccc2cc(N(C)C)ccc2c1 [Prodan, 6-propionyl-2-(dimethylamino)naphthalene]
fluorophore binding to heat shocked GRP94 (GRP94 [5]): does not interact with the hydrophobic binding pocket(s) displayed by heat shocked GRP94

C[C@@H]1C[C@H]2O[C@@H]2/C=C\C=C\C(=O)Cc2c(Cl)c(O)cc(O)c2C(=O)O1 [radicicol]
effect on casein kinase II activity (casein kinase II): neither NECA nor radicicol, both of which bind to the N-terminal nucleotide binding domain of GRP94, significantly inhibit GRP94 derived or casein kinase II activity
binding stoichiometry of radicicol to Hsp90 ([4]; Roe et al. (1999)): 2 mol radicicol/mol Hsp90 dimer

Nc1ccn([C@@H]2O[C@H](COP(=O)(O)OP(=O)(O)OP(=O)(O)O)[C@@H](O)[C@H]2O)c(=O)n1 [CTP]
nucleoside base specificity: binding by [3H]-NECA competitive displacement (GRP94 [2]): little to no binding

O=S(=O)(O)c1cccc2cccc(Nc3ccccc3)c12 [8-ANS, 1,8-anilinonaphthalenesulfonate]
fluorophore binding to heat shocked GRP94 (GRP94 [5]): binds avidly following heat shock
fluorophore binding to native GRP94 (GRP94 [5]; 0.5 μM native GRP94, 5 μM probe, 30 min at 37° C.): weak interactions with native GRP94

O=c1ccn([C@@H]2O[C@H](COP(=O)(O)OP(=O)(O)OP(=O)(O)O)[C@@H](O)[C@H]2O)c(=O)[nH]1 [UTP]
nucleoside base specificity: binding by [3H]-NECA competitive displacement (GRP94 [2]): little to no binding

Source: patent publication US7235649B2, “Isolated GRP94 ligand binding domain polypeptide and nucleic acid encoding same, and screening methods employing same” (Duke University, priority 2000, dated 2007)
